Experimental data from patent US9783537B2, “3-(4-ethylnylphenyl) pyridopyrimidinone compounds and process for preparation thereof useful as potential anticancer agents” (Council of Scientific & Industrial Research, priority 2013, dated 2017).
Read-outs that look alike come from different tables or passages of the source.

Tests used:
[1] = test system: seven ovarian cancer cell lines (IGROV1, OVCAR-3, OVCAR-4, OVCAR-5, OVCAR-8, NCI/ADR-RES and SK-OV-3); assay: in vitro anticancer activity, ovarian panel; type: cell-based; details: Homo sapiens, exposure at least 48 h, read-out: GI50, range over panel
HOP-92 = assay: SRB 48 h growth assay, Non-small Cell Lung HOP-92; type: cell-based, human; details: HOP-92, Non-small Cell Lung
MDA-MB-468 = assay: SRB 48 h growth assay, Breast MDA-MB-468; type: cell-based, human; details: MDA-MB-468, Breast
SK-MEL-2 = assay: SRB 48 h growth assay, Melanoma SK-MEL-2; type: cell-based, human; details: SK-MEL-2, Melanoma
U251 = assay: SRB 48 h growth assay, CNS U251; type: cell-based, human
[2] = test system: six breast cancer cell line (MCF-7, MDA-MB-231/ATCC, HS 578T, TD-47D, MDA-MB-468 and BT-549); assay: in vitro anticancer activity, breast panel; type: cell-based; details: Homo sapiens; six breast cancer cell lines, exposure at least 48 h; read-out: GI50, range over panel
[3] = test system: six CNS cancer cell line (SF-268, SF-295, SF-539, SNB-19, SNB-75 and U251); assay: in vitro anticancer activity, CNS panel; type: cell-based; details: Homo sapiens; six CNS cancer cell lines, exposure at least 48 h; read-out: GI50, range over panel
[4] = test system: seven colon cancer cell line (COLO 205, HCC-2998, HCT-116, HCT-15, HT29, KM12 and SW-620); assay: in vitro anticancer activity, colon panel; type: cell-based; details: Homo sapiens; seven colon cancer cell lines, exposure at least 48 h; read-out: GI50, range over panel
[5] = test system: eight renal cancer cell line (786-0, A498, ACHN, CAKI-1, SN12C, TK-10, UO-31 and RXF 393); assay: in vitro anticancer activity, renal panel; type: cell-based; details: Homo sapiens; eight renal cancer cell lines, exposure at least 48 h; read-out: in vitro anticancer activity, range over panel
ACHN = assay: SRB 48 h growth assay, Renal ACHN; type: cell-based, human
IGROV1 = assay: SRB 48 h growth assay, Ovarian IGROV1; type: cell-based, human
NCI-H322M = assay: SRB 48 h growth assay, Non-small Cell Lung NCI-H322M; type: cell-based, human
UACC-257 = assay: SRB 48 h growth assay, Melanoma UACC-257; type: cell-based, human; details: UACC-257, Melanoma
K-562 = assay: SRB 48 h growth assay, Leukemia K-562; type: cell-based, human
NCI/ADR-RES = assay: SRB 48 h growth assay, Ovarian NCI/ADR-RES; type: cell-based, human
OVCAR-3 = assay: SRB 48 h growth assay, Ovarian OVCAR-3; type: cell-based, human; details: OVCAR-3, Ovarian
A498 = assay: SRB 48 h growth assay, Renal A498; type: cell-based, human
SR = assay: SRB 48 h growth assay, Leukemia SR; type: cell-based, human
HOP-62 = assay: SRB 48 h growth assay, Non-small Cell Lung HOP-62; type: cell-based, human; details: HOP-62, Non-small Cell Lung
786-0 = assay: SRB 48 h growth assay, Renal 786-0; type: cell-based, human; details: 786-0, Renal
DU-145 = assay: SRB 48 h growth assay, Prostate DU-145; type: cell-based, human; details: DU-145, Prostate
SK-OV-3 = assay: SRB 48 h growth assay, Ovarian SK-OV-3; type: cell-based, human; details: SK-OV-3, Ovarian
T-47D = assay: SRB 48 h growth assay, Breast T-47D; type: cell-based, human
NCI-H226 = assay: SRB 48 h growth assay, Non-small Cell Lung NCI-H226; type: cell-based, human
NCI-H460 = assay: SRB 48 h growth assay, Non-small Cell Lung NCI-H460; type: cell-based, human
OVCAR-4 = assay: SRB 48 h growth assay, Ovarian OVCAR-4; type: cell-based, human; details: OVCAR-4, Ovarian
[6] = Homo sapiens, read-out: Growth Inhibition GI50
[7] = Homo sapiens, read-out: Log10 GI50 (converted)
[8] = Homo sapiens, read-out: Log10 LC50 (converted)

C#Cc1ccc(-n2c(/C=C/c3ccc(O)cc3)nc3ncccc3c2=O)cc1 [4b, (E)-3-(4-Ethynylphenyl)-2-(4-hydroxystyryl)pyrido[2,3-d]pyrimidin-4(3H)-one]
GI50 [1]: 2.33 to 9.67 µM | Log10 TGI50 (HOP-92): −4.77 | GI50 (HOP-92; [6]): 1.8 µM | GI50 (HOP-92; [7]): 1.82 µM | CC50 (HOP-92; [8]): > 100 µM | GI50 (MDA-MB-468; [6]): 2.31 µM | GI50 (MDA-MB-468; [7]): 2.29 µM | CC50 (MDA-MB-468; [8]): > 100 µM | Log10 TGI50 (MDA-MB-468): −5.15 | GI50 (SK-MEL-2; [6]): 3.95 µM | GI50 (SK-MEL-2; [7]): 3.98 µM | CC50 (SK-MEL-2; [8]): > 100 µM | Log10 TGI50 (SK-MEL-2): −4.39 | Log10 TGI50 (U251): >−4.00 | GI50 (U251; Homo sapiens, U-251, read-out: Growth Inhibition GI50): 4.02 µM | GI50 (U251; Homo sapiens, U-251, read-out: Log10 GI50 (converted)): 3.98 µM | CC50 (U251; Homo sapiens, U-251, read-out: Log10 LC50 (converted)): > 100 µM | GI50 [2]: 2.83 to 5.85 µM | GI50 [3]: 3.88 to 16.2 µM | GI50 [4]: 3.19 to 27.5 µM | GI50 [5]: 2.63 to 20.5 µM | Log10 TGI50 (ACHN): >−4.00 | GI50 (ACHN; [6]): 6.31 µM | GI50 (ACHN; [7]): 6.31 µM | CC50 (ACHN; [8]): > 100 µM | Log10 TGI50 (IGROV1): −4.45 | GI50 (IGROV1; Homo sapiens, IGROV-1, read-out: Growth Inhibition GI50): 4.69 µM | GI50 (IGROV1; Homo sapiens, IGROV-1, read-out: Log10 GI50 (converted)): 4.68 µM | CC50 (IGROV1; Homo sapiens, IGROV-1, read-out: Log10 LC50 (converted)): > 100 µM | Log10 TGI50 (NCI-H322M): >−4.00 | GI50 (NCI-H322M; [6]): 5.58 µM | GI50 (NCI-H322M; [7]): 5.62 µM | CC50 (NCI-H322M; [8]): > 100 µM | GI50 (UACC-257; [6]): 6.3 µM | GI50 (UACC-257; [7]): 6.31 µM | CC50 (UACC-257; [8]): > 100 µM | Log10 TGI50 (UACC-257): >−4.00 | GI50 (K-562; Homo sapiens, K562, K-562, Leukemia, read-out: Growth Inhibition GI50): 4.33 µM | GI50 (K-562; Homo sapiens, K562, K-562, Leukemia, read-out: Log10 GI50 (converted)): 4.37 µM | CC50 (K-562; Homo sapiens, K562, K-562, Leukemia, read-out: Log10 LC50 (converted)): > 100 µM | Log10 TGI50 (K-562; K-562, Leukemia): >−4.00 | Log10 TGI50 (NCI/ADR-RES): >−4.00 | GI50 (NCI/ADR-RES; [6]): 5.28 µM | GI50 (NCI/ADR-RES; [7]): 5.25 µM | CC50 (NCI/ADR-RES; [8]): > 100 µM | GI50 (OVCAR-3; [6]): 2.41 µM | GI50 (OVCAR-3; [7]): 2.4 µM | CC50 (OVCAR-3; [8]): > 72.4 µM | Log10 TGI50 (OVCAR-3): −5.24 | Log10 TGI50 (A498): −5.16 | GI50 (A498; [6]): 2.48 µM | GI50 (A498; [7]): 2.45 µM | CC50 (A498; [8]): > 100 µM | Log10 TGI50 (SR): >−4.00 | GI50 (SR; [6]): 3.54 µM | GI50 (SR; [7]): 3.55 µM | CC50 (SR; [8]): > 100 µM | Log10 TGI50 (HOP-62): −4.25 | GI50 (HOP-62; [6]): 5.66 µM | GI50 (HOP-62; [7]): 5.62 µM | CC50 (HOP-62; [8]): > 100 µM | Log10 TGI50 (786-0): >−4.30 | GI50 (786-0; [6]): 4.88 µM | GI50 (786-0; [7]): 4.9 µM | CC50 (786-0; [8]): > 100 µM | Log10 TGI50 (DU-145): −4.12 | GI50 (DU-145; [6]): 4.1 µM | GI50 (DU-145; [7]): 4.07 µM | CC50 (DU-145; [8]): > 100 µM | GI50 (SK-OV-3; [6]): 3.38 µM | GI50 (SK-OV-3; [7]): 3.39 µM | CC50 (SK-OV-3; [8]): > 100 µM | Log10 TGI50 (SK-OV-3): −4.54 | Log10 TGI50 (T-47D): >−4.00 | GI50 (T-47D; Homo sapiens, T47D, read-out: Growth Inhibition GI50): 4.63 µM | GI50 (T-47D; Homo sapiens, T47D, read-out: Log10 GI50 (converted)): 4.68 µM | CC50 (T-47D; Homo sapiens, T47D, read-out: Log10 LC50 (converted)): > 100 µM | Log10 TGI50 (NCI-H226): −4.88 | GI50 (NCI-H226; [6]): 2.58 µM | GI50 (NCI-H226; [7]): 2.57 µM | LC50 (NCI-H226; [8]): > 100 µM | Log10 TGI50 (NCI-H460): −4.85 | GI50 (NCI-H460; [6]): 3.33 µM | GI50 (NCI-H460; [7]): 3.31 µM | LC50 (NCI-H460; [8]): > 100 µM | GI50 (OVCAR-4; [6]): 22.8 µM | GI50 (OVCAR-4; [7]): 1.58 µM | CC50 (OVCAR-4; [8]): > 100 µM | Log10 TGI50 (OVCAR-4): >−4.00
